{"source": "patent US10201558B2", "about": "“Compositions of selenoorganic compounds and methods of use thereof” (Alltech, Inc., priority 2014, dated 2019)", "format_in_all_cases": "cell-based, human", "key": {"RCAN1.1": {"test_system": "RCAN1.1", "assay": "Western blot of RCAN1 (RCAN1.1) protein in IMR-32 cells", "conditions": "150 ppb, 24 hours", "protocol": "(§1) IMR-32 cells were seeded on 6-well plates and then treated with control and various compounds for 6 hours and 24 hours, as described above. After treatments, cells were rinsed with ice-cold PBS and lysed in ice-cold RIPA buffer containing complete proteinase and phosphatase inhibitors (Thermo-Fisher Scientific, Waltham, Mass.) on ice for 30 min Cell lysates were collected using a cell scraper and transfer pipette and then centrifuged at 12000×g for 30 min at 4° C. to remove the DNA pellet and obtain the protein extract. Protein levels in the supernatant of these cell lysates were determined using the Pierce Micro-BCA protein assay kit (Thermo Scientific-Piece Biotechnology, Rockford, Ill.) according to the manufacturer's protocol […]\n(§2) Positive signals on the membrane blots were detected using Amersham's enhanced chemiluminescence (ECL) Western Blotting Prime Detection reagents (GE healthcare Lifescience, Pittsburgh, Pa.). Images of these luminescence signals on the membrane blots were captured using the LI-COR Odyssey Fc Image system (Lincoln, Nebr.). […] Protein band densities in the Western blots were determined using the Li—COR Image studio software or NIH ImageJ software, and then normalized by ACTB protein level in each sample. […]\nThe ability of selenium compounds to regulate RCAN1 expression in IMR-32 cells was also assessed. […]"}, "APOE4": {"test_system": "APOE4", "assay": "Western blot of APOE4 protein in IMR-32 cells", "conditions": "150 ppb", "protocol": "as §1, §2"}, "[1]": {"test_system": "control KD and FOXO4KD IMR-32 cells", "assay": "Mitochondrial potential in control KD and FOXO4 knockdown IMR-32 cells", "conditions": "75 ppb and 150 ppb, 6 hours", "protocol": "(§3) IMR-32 cells were cultured on 12-well plates for 24 hours and then incubated with FOXO4 siRNA lentiviruses (SC-29650V, Santa Cruz) or control siRNA lentiviruses (sc-108080, Santa Cruz) in the presence of Polybrene (5 μg/ml, Santa Cruz) for 24 hours according to the manufacturer's protocol. These lentiviral siRNA-transfected cells were amplified in normal media for 3 days and then incubated with puromycin for 9-14 days to obtain the stable Control KD (stably transfected with the control siRNAs) and FOXO4KD (stably transfected with Foxo4 siRNAs) cells. These control and Foxo4 KD cells were subjected to cell survival, mitochondrial potential and RNA analysis.\nThe mitochondrial potential per cell in control lentiviral KD IMR-32 or IMR-32 FOXO4 knockdown (KD) cells was determined using the Bio-TeK Synergy HT Multi-Mode fluorescence microplate reader with the following modifications. To improve the attachment of IMR-32 cells to culture dishes, cell culture plates were precoated with 0.1% gelatin (Sigma, St. Louis, Mo.).\nTo reduce cell dislodgment, Mitotracker Orange and Hoechst 33342 fluorescent dyes (diluted in culture media) were directly added to each well after control or compound treatments were added. After dye incubation, cell culture media was carefully replaced with 1×PBS buffer for the quantitation analysis of fluorescence on the microplate reader. Eight samples per each treatment were examined for the above analysis, and the experiments were repeated at least five times. Data are presented as mean±sem of eight samples.\nTo exclude the possibility that unknown factors in sera may affect the action of Compound C in cultured IMR-32 cells, cells were cultured in serum-free media for 24 hours, treated with Compound C (diluted in serum-free media) for 6 hours, and then subjected to MT analysis. Data were normalized by the fluorescence intensities of stained cell nuclei. Mean±SEM, n=8. The * refers to a p value <0.05 when compared to the control lentiviral KD cells group (0 ppb)."}, "MAPK12": {"test_system": "MAPK12", "assay": "QRT-PCR of MAPK12 mRNA in control and FOXO4 KD IMR-32 cells", "conditions": "24 hours", "protocol": "as §3\nHuman IMR-32 cells were seeded on gelatinized 6-well (6.5×10^5 cells/well) or 24-well (1.3×10^5 cells/well) plates. Cells were treated with control (0 ppb) or various compounds for 6 hours or 24 hours. Total RNA from these cells was isolated using Trizol (Invitrogen) according to the manufacturer's protocol, and then incubated with DNase I to remove any potential contaminated genomic DNA. Then RNA samples were subjected to real-time PCR analysis using the Applied-Bioscience's RT kit and predesigned Taqman probes (Invitrogen), as described previously (Lan et al EMBO J 2003). The mRNA levels of UCP1, UCP2, UCP3, SLC25A27 (UCP4), SLC25A14 (UCP5), PSEN1, Nicastrin, GSK3B, MAPK11-14, PPARG, APOE, RCAN1, RCAN1.1, G6PC, INSR, IGF1R and FOXO4 were measured. Three to six samples were analyzed in each treatment group. Data were normalized by Actin B (ACTB) or Glyceraldehyde Phosphate Dehydrogenase (GAPDH) mRNA levels in each sample and are presented as mean±SEM of 3-6 samples.\nNormal control cells and FOXO4KD cells were incubated with two doses of Compound C for 24 hours, and subjected to QRT-PCR analysis of the MAPK11-14 genes. The relative mRNA expression of all four MAPK genes in normal control IMR-32 cells was assessed. […] Data in Compound C-treated control and FOXO4 KD cells were normalized by their levels in control and FOXO4KD cells, respectively. Mean±SEM of indicated number of samples in the bar graphs. […]"}}}
{"smiles": "C[Se]C[C@H](NC(=O)CC[C@H](N)C(=O)O)C(=O)O", "note": "[Compound E, γ-L-glutamyl-Se-methyl-L-selenocysteine]", "values": [{"measurement": "RCAN1.1 protein levels", "setting": "RCAN1.1", "result": "not Compound E"}]}
{"smiles": "C[Se]C[C@H]1O[C@@H](n2cnc3c(N)ncnc32)C(O)C1O", "note": "(stereo in doubt) [Compound C, 5′-deoxy-5′-methylselenoadenosine]", "values": [{"measurement": "RCAN1.1 protein levels", "setting": "RCAN1.1", "result": "decrease"}, {"measurement": "APOE4 protein levels", "setting": "APOE4; 6 hours", "result": "not for 6 hour"}, {"measurement": "APOE4 protein levels", "setting": "APOE4; 24 hours", "result": "markedly decreased"}, {"measurement": "MT potential", "setting": "[1]; FOXO4KD cells, serum-containing media", "result": "no significant effect"}, {"measurement": "MT potential", "setting": "[1]; FOXO4KD cells, serum-free media", "result": "no significant increase"}, {"measurement": "MT potential", "setting": "[1]; normal control KD cells, serum-containing media", "result": "significantly enhanced"}, {"measurement": "MT potential", "setting": "[1]; normal control KD cells, serum-free media", "result": "significantly stimulated"}, {"measurement": "MAPK12 mRNA levels", "setting": "MAPK12; FOXO4KD cells, 75 ppb and 150 ppb", "result": "none of the mRNA levels of the four MAPK genes in FOXO4KD cells were significantly altered"}, {"measurement": "MAPK12 mRNA levels", "setting": "MAPK12; control KD cells, 75 ppb", "result": "significant decrease"}, {"measurement": "MAPK12 mRNA levels", "setting": "MAPK12; control KD cells, 150 ppb", "result": "significantly decreased"}]}
